Results taken from US20150246074A1, “METHODS OF A[…] TOLERANCE” (The Board of Trustees of the University of Illinois, priority 2014, published 2015).

Key:
Sprague-Dawley rats [1] = assay: Withdrawal thresholds to thermal stimulation (plantar test) in rats, MSC transplantation and daily morphine; assay type: in vivo, rat; conditions: control group, Day 17 and thereafter, daily morphine, p<0.05
Description: (§1) Animal care and use. The experimental protocols were approved by the Institutional Animal Care and Use Committee of Cleveland Clinic (IACUC #: 2010-0460). Experiments were performed on 24 male Sprague-Dawley rats (250-300 g), purchased from Harlan Laboratories (Indianapolis, Ind.). The animals were housed in group cages (2 per cage), allowed free access to food and water, and maintained on a 12/12 hour light/dark cycle.
(§2) Experimental design. Animals were habituated daily to the experimental environment for 1 week before testing. Pain sensitivity to mechanical or thermal stimuli applied to the hindpaws was determined by the thresholds of withdrawal of the hindlimbs from the stimuli. […] The effects of MSC transplantation or PBS injection on morphine-induced tolerance were evaluated every other day. […]
(§3) Stem cell transplantation. […] Immediately before transplantation, the cells were gently dissociated with 0.25% Trypsin, pelleted by centrifugation, counted by trypan blue exclusion, and suspended in 50 μl of PBS. […]
(§4) Behavioral tests. […] Withdrawal thresholds were quantified as the mechanical pressure in grams applied to the hindpaws through calibrated filaments (von Frey filaments) or the time interval in seconds between the activation of an infrared thermal stimulation and the withdrawal of the limb. […]

SH-SY5Y cells = assay: cAMP accumulation assay in morphine-treated SH-SY5Y cells; assay type: cell-based, human; conditions: for cAMP levels: 24 h, SH-SY5Y cells, control not treated with morphine = 100%
Description: Culture of SH-SY5Y Cells. SH-SY5Y cells, a well-established stable human neuroblastoma cell line, were purchased from American Type Culture Collection (ATCC, Manassas, Va.) and grown in Dulbecco's modified Eagle's medium (DMEM) with 10% fetal bovine serum, […] penicillin, and 100 μg/ml streptomycin at 37° C. in a 5% CO2 humidified incubator (Fisher). Before experiments, SH-SY5Y cells were treated with 10 μM retinoic acid (RA) for 6 days to induce neuronal differentiation. These differentiated SH-SY5Y cells were then treated with morphine (10 μM) for 24 h unless otherwise specified.
cAMP Accumulation Assay. Levels of cAMP, which is involved in a cellular mechanism of opioid tolerance development, were determined in morphine-treated SH-SY5Y cells. Thirty-six hours after co-culturing with hMSCs or HDFs, SH-SY5Y cells were harvested with a non-enzymatic cell dissociation solution and washed once with HBSS buffer. cAMP accumulation in SH-SY5Y cells was assayed using a LANCE™ cAMP kit (PerkinElmer, Waltham, Mass.) according to the manufacturer's protocol. SH-SY5Y cells were centrifuged at 1000 g for 2 min, resuspended at a concentration of 2×10^6 cells/ml in stimulation buffer (1×HBSS, 5 mM HEPES, 0.1% BSA, 0.5 mM IBMX, pH 7.4) and mixed with 50 μM forskolin. Alexa pluor® 647 labeled antibody was added to the cell suspension and the cells were incubated at 37° C. for additional 15 min, and detection mix was then added to the final cell suspension. The cell sample was further incubated for 1 h in the dark and read on a TECAN instrument (San Jose, Calif.) to measure the LANCE signal. The LANCE signal obtained at […] was directly used to analyze the cAMP levels. The signal at […] was used to identify dispensing or quenching problems. The cAMP standard curve was assayed according to the manufacturer's instructions. The cAMP formation was calculated as the percentage of forskolin-stimulated cAMP accumulation without morphine, which was defined as 100%. All data were expressed as mean±SD. Statistical comparisons were analyzed using Prism software. […]

Sprague-Dawley rats [2] = assay: Withdrawal thresholds to mechanical stimulation (von Frey) in rats, MSC transplantation and daily morphine; assay type: in vivo, rat
Description: as §1, §2, §3, §4

## CN1CC[C@]23c4c5ccc(O)c4O[C@H]2[C@@H](O)C=C[C@H]3[C@H]1C5 [morphine]
Sprague-Dawley rats [1]
  withdrawal thresholds to thermal stimulation vs pre-morphine values at day 11: significantly reduced
SH-SY5Y cells; 1 μM morphine
  cAMP levels: 150.7±20.6 % of control
SH-SY5Y cells; 10 μM morphine
  cAMP levels: 241.6±19.6 % of control
SH-SY5Y cells; 10 μM morphine, at 24 and 48 h vs 0 h, p<0.001 (FIG. 2)
  cAMP levels over time: significant increase of cAMP
Sprague-Dawley rats [2]; control (PBS) group, daily s.c. morphine 7.5 mg/kg, within five days
  withdrawal thresholds to mechanical stimulation (morphine tolerance): gradually and significantly reduced
Sprague-Dawley rats [2]; control group, Day 15, 4 days after start of daily morphine injections, t=15.639, p<0.001
  mean mechanical withdrawal thresholds vs pre-morphine value at day 11: dramatically decreased
